Assays:
[1] = biological target: TP53-binding protein 1 (Homo sapiens, UniProt Q12888); test: AlphaScreen Assay; settings: pH 8
Protocol: (§1) In brief, compound plates (1 μL at 10 mM highest concentration; 3-fold, 10-point dilutions in DMSO) were diluted in 1X assay buffer (20 mM TRIS pH 8.0, 25 mM NaCl, 2 mM DTT and 0.05% Tween-20) to 1 mM using a Multimek robotic pipettor (Nanoscreen), and 1 μL was spotted into the wells of 384-well low-volume Proxiplates (PerkinElmer). To these plates was added 9 μL of protein−peptide mix in a 1X assay buffer by Multidrop (Thermo) to bring the final compound concentration to 100 μM, and this was incubated for 30 min at RT. Next, 2 μL of a 1:1 mixture of streptavidin-conjugate donor and nickel-chelate acceptor beads (45μg/mL in 1X assay buffer) were added, and the plates were allowed to incubate for an additional 30 min in the dark at RT. After incubation, the plates were read on an EnVision multilabel reader equipped with an HTS AlphaScreen laser (PerkinElmer).

[2] = biological target: T1, Isoform 4 of Lethal(3)malignant brain tumor-like protein 1 (4) (Homo sapiens, UniProt Q9Y468); test: AlphaScreen Assay; settings: pH 8
T1 sequence (Q9Y468 whole entry): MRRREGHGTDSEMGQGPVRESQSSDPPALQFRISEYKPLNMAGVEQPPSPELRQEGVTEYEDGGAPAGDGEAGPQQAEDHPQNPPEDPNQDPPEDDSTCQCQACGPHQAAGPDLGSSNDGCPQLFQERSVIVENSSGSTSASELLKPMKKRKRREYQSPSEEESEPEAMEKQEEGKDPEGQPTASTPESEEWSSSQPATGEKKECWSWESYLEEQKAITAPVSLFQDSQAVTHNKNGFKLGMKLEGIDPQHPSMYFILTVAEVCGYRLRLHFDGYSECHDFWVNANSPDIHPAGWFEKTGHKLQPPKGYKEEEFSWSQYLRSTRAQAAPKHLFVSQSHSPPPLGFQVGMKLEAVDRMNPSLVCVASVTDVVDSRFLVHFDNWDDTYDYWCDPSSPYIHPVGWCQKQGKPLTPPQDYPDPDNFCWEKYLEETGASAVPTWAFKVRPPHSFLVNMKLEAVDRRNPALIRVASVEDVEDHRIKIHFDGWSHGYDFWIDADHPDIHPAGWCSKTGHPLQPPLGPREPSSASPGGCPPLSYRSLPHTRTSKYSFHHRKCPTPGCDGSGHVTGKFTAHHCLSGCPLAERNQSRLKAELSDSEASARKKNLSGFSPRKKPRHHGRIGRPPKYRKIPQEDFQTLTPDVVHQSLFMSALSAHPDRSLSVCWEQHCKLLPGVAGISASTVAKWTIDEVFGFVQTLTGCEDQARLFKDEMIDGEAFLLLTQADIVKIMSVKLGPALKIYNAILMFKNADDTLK
Protocol: as §1

Sequence of TP53-binding protein 1 (Q12888 whole entry): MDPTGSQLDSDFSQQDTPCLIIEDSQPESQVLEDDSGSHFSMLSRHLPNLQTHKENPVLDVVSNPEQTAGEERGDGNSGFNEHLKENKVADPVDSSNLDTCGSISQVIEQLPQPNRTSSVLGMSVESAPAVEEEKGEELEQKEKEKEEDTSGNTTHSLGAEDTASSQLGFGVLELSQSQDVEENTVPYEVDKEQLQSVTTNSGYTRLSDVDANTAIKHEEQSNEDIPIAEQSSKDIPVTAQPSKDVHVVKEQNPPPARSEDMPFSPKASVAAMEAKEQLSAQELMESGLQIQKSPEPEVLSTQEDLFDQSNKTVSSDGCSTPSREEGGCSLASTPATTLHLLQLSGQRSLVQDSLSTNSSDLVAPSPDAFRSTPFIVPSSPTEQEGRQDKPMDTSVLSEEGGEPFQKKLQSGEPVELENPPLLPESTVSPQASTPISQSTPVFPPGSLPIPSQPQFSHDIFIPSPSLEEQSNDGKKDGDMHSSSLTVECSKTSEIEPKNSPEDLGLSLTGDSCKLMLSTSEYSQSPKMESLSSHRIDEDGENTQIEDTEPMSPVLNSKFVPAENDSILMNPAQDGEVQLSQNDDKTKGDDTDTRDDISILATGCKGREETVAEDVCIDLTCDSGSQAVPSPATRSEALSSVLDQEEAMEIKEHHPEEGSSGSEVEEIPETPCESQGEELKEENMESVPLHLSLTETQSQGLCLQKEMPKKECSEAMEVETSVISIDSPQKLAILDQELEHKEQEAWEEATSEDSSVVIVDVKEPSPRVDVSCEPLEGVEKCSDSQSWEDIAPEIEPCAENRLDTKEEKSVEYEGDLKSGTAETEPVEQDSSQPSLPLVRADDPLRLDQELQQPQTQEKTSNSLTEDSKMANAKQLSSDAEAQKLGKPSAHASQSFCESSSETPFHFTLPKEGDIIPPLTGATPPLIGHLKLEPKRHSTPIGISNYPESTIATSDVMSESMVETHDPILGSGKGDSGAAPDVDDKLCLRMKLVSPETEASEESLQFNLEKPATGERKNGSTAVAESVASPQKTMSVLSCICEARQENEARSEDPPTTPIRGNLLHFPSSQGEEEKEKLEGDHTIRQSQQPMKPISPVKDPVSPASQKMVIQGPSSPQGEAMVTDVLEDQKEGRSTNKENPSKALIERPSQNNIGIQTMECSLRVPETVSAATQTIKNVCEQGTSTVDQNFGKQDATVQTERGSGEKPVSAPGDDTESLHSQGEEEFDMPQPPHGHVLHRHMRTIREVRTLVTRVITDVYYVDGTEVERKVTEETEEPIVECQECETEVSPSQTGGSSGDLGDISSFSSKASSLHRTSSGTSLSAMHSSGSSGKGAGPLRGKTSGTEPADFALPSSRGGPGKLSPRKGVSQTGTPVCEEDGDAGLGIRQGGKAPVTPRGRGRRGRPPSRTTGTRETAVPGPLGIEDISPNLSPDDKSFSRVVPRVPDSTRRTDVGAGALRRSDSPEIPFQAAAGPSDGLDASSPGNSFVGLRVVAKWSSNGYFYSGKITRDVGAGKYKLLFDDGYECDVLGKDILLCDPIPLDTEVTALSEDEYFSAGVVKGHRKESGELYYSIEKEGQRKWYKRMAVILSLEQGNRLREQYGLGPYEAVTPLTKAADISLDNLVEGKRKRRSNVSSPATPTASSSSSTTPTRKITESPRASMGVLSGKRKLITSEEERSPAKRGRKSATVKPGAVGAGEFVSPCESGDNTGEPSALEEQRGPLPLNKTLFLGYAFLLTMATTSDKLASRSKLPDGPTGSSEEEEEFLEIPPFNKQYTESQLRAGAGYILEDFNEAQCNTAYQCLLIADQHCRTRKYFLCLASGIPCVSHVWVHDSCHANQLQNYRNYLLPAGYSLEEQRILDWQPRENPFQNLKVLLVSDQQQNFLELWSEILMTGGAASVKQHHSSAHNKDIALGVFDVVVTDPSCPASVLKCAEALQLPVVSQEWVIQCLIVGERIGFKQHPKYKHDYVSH

Row | Structure (SMILES) | IC50 [1] [µM] | IC50 [2] [µM]
1 | CC(C)(C)NCCCNC(=O)c1ccccc1Br [2-Bromo-N-(3-(tert-butylamino)propyl)benzamide (16)] | > 100 | > 100
2 | CC(C)(C)NCCCCNC(=O)c1cccc(Br)c1 [3-Bromo-N-(4-(tert-butylamino)butyl)benzamide (11)] | > 100 | > 100
3 | CC(C)(C)NCCCCCNC(=O)c1cccc(Br)c1 [3-Bromo-N-(5-(tert-butylamino)pentyl)benzamide (12)] | > 100 | > 100
4 | CC(C)(C)NCCCNC(=O)c1ccc(Br)cc1 [4-Bromo-N-(3-(tert-butylamino)propyl)benzamide (15)] | > 100 | > 100
5 | CC(C)(C)NCCCNC(=O)c1cc(Br)ccn1 [4-Bromo-N-(3-(tert-butylamino)propyl)picolinamide (24)] | > 100 | > 100
6 | CC(C)(C)N1CCN(C(=O)c2cccc(Br)c2)CC1 [(3-Bromophenyl)(4-(tert-butyl)piperazin-1-yl)methanone (10)] | > 100 | > 100
7 | CC(C)(C)NCCCNC(=O)c1cc(C(F)(F)F)ccn1 [N-(3-(Tert-butylamino)propyl)-4-(trifluoromethyl)picolinamide (25)] | > 100 | > 100
